In test [1] the target is T1, IDO1 (Homo sapiens, UniProt P14902).
T1 construct: endogenous in cells; host or cells: HeLa cells (ATCC), IFNgamma-induced
The test is described as follows: IDO1 cell-based assay (HeLa cells, IFNgamma-induced, N-formylkynurenine/L-tryptophan by RFMS). The following applies: 10 ng/mL IFNgamma, 24 hours. The gist of the method:
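HeLa cells stimulated with 10 ng/mL IFNgamma and exposed to compound (0.5% DMSO final) for 24 h at 37 °C. Conditioned media deproteinized, then N-formylkynurenine and L-tryptophan quantified by RapidFire MS with deuterated tryptophan internal standard; IC50 by curve fitting. Viability checked by CellTiter-Glo.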

The target in test [2] is T2, mouse IDO1 (Mus musculus, UniProt P28776).
T2 construct: The murine PANC02 pancreatic ductal adenocarcinoma cell line was routinely maintained in DMEM media; endogenous in cells; host or cells: PANC02 murine pancreatic ductal adenocarcinoma cells, induced with mouse IFNgamma
The test is described as follows: Mouse IDO1 cell-based assay (PANC02 cells, mouse IFNgamma-induced, N-formylkynurenine/L-tryptophan by RFMS). As to conditions: 30 ng/mL mouse IFNgamma, 48 hours. Here is the method: The murine PANC02 pancreatic ductal adenocarcinoma cell line was routinely maintained in DMEM media containing 10% FBS. Cells (3,000/well) were seeded onto a 384 well plate in 50 μl of media and incubated at 37° C., 5% CO2 overnight. Cell media was aspirated, fresh media containing 30 ng/mL mouse IFNgamma (Gibco Life Technologies, cat #PMC4031) was added, and cells were incubated in absence or presence of various concentrations of compounds (final 0.5% DMSO) for 48 hours at 37° C., 5% CO2. Aliquots of the cell conditioned media was removed from the cell plate, and mixed with equal volume of 200 mM ZnSO4 to precipitate media containing protein. Two volumes of acetonitrile were added by mixing, and samples were then centrifuged at 2250G for 20 minutes at 4° C. Aliquots of the supernatant were diluted 1:10 in 0.1% formic acid containing 3 μM of deuterated Tryptophan as an internal standard.
Samples were analyzed via RFMS to quantify N-Formyl Kynurenine (AUC) and L-tryptophan (AUC). A C18 cartridge was used with mobile phases of 0.1% Formic Acid and 80% ACN/0.1% Formic Acid under isocratic conditions. Dose-response curves were analyzed using IC50 regression curve fitting (GeneData Screener). Curves were plotted as percent of control and normalized by high controls without inhibitor (100%), and low controls (0%) containing 1 μM of epacadostat. Cell viability was also assessed using the Cell Titer Glo Kit (Promega) following manufacture recommendation.

T2 sequence (P28776 whole entry): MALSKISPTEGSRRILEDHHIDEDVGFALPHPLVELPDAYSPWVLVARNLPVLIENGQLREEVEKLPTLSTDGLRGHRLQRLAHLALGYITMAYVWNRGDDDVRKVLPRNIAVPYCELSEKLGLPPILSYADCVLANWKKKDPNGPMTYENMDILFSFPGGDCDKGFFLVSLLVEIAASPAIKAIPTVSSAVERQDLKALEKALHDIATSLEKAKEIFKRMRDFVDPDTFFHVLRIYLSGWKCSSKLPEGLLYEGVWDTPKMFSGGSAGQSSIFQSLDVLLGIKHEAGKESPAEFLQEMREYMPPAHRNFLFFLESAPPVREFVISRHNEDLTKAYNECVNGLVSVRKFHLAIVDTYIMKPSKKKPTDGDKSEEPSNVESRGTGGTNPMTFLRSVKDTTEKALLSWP
T1 sequence (P14902 whole entry): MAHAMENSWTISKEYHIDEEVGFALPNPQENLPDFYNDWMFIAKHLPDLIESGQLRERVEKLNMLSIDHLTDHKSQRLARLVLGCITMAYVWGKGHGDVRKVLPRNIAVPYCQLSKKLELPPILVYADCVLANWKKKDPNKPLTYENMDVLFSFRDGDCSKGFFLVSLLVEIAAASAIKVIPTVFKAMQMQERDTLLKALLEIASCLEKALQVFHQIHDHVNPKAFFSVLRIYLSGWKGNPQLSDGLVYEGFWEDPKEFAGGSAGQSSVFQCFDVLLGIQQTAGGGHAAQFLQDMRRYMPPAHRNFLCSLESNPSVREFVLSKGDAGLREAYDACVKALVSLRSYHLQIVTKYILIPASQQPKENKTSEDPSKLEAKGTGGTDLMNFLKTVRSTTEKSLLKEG

Consider `CCC(NC(=O)c1ccc(Cl)cc1)[C@H]1[C@@H]2C[C@H](n3cc(CO)nn3)C[C@@H]21` (stereo partly drawn) [Compound 187, 4-chloro-N-(1-((1R,3r,5S,6r)-3-(4-(hydroxymethyl)-1H-1,2,3-triazol-1-yl)bicyclo[3.1.0]hexan-6-yl)propyl)benzamide], for which the IC50 – broadly, the concentration that gives 50% inhibition – in test [1] lay in the range of 200 to 2000 nM; in test [2], 2000 to 5000 nM.

In the case of `CCC(NC(=O)c1ccc(Cl)cc1)[C@H]1[C@@H]2C[C@@H](NC(=O)c3ncccc3F)C[C@@H]21` (stereo partly drawn) [Compound 188, N-((1R,3s,5S,6r)-6-(1-(4-chlorobenzamido)propyl)bicyclo[3.1.0]hexan-3-yl)-3-fluoropicolinamide], the results for the IC50 in test [1] and in test [2] were under 200 nM and 500 to 2000 nM, respectively.

As for `CCC(NC(=O)c1ccc(Cl)cc1)[C@H]1[C@@H]2C[C@@H](NC(=O)N(C)c3ccccn3)C[C@@H]21` (stereo partly drawn) [Compound 189, 4-chloro-N-(1-((1R,3s, 5S, 6r)-3-(3-methyl-3-(pyridin-2-yl)ureido)bicyclo[3.1.0]hexan-6-yl)propyl)benzamide], the IC50 is under 200 nM in test [1] and 500 to 2000 nM in test [2].

Regarding `CCOC(=O)C(N[C@@H]1C[C@@H]2[C@H](C1)[C@H]2C(CC)NC(=O)c1ccc(Cl)cc1)c1ccccc1` (stereo partly drawn) [Compound 190, ethyl 2-(((1R,3s,5S,6r)-6-(1-(4-chlorobenzamido)propyl)bicyclo[3.1.0]hexan-3-yl)amino)-2-phenylacetate], the IC50 in test [1] is 200 to 2000 nM; in test [2], over 5000 nM.

For `CCC(NC(=O)c1ccc(Cl)cc1)[C@H]1[C@@H]2C[C@H](n3nncc3C3CC3)C[C@@H]21` (stereo partly drawn) [Compound 191, 4-chloro-N-(1-((1R,3r,5S,6r)-3-(5-cyclopropyl-1H-1,2,3-triazol-1-yl)bicyclo[3.1.0]hexan-6-yl)propyl)benzamide], the IC50 in test [1] was in the range of 200 to 2000 nM; in test [2] it was 500 to 2000 nM.

On to `CCC(NC(=O)c1ccc(Cl)cc1)[C@H]1[C@@H]2C[C@@H](n3c(=O)[nH]c4cc(F)ccc43)C[C@@H]21` (stereo partly drawn) [Compound 192, 4-chloro-N-(1-((1R,3s,5S,6r)-3-(5-fluoro-2-oxo-2,3-dihydro-1H-benzo[d]imidazol-1-yl)bicyclo[3.1.0]hexan-6-yl)propyl)benzamide], for which the results for the IC50 in test [1] and in test [2] were 200 to 2000 nM and 500 to 2000 nM, respectively.

As for `CCC(NC(=O)c1ccc(Cl)cc1)[C@H]1[C@@H]2C[C@@H](Oc3nc4cc(F)ccc4[nH]3)C[C@@H]21` (stereo partly drawn) [Compound 193, 4-chloro-N-(1-((1R,3s,5S,6r)-3-((6-fluoro-1H-benzo[d]imidazol-2-yl)oxy)bicyclo[3.1.0]hexan-6-yl)propyl)benzamide], the IC50 is 200 to 2000 nM in test [1] and 500 to 2000 nM in test [2].

With `CCC(NC(=O)c1ccc(Cl)cc1)[C@H]1[C@@H]2C[C@@H](n3ccc4ncnc-4c3)C[C@@H]21` (stereo partly drawn) [Compound 198, N-(1-((1R,3s,5S,6r)-3-(5H-imidazo[4,5-c]pyridin-5-yl)bicyclo[3.1.0]hexan-6-yl)propyl)-4-chlorobenzamide], the 50% inhibitory concentration (IC50) in test [1] is under 200 nM; in test [2], 500 to 2000 nM.

Consider `CCC(NC(=O)c1ccc(Cl)cc1)[C@H]1[C@@H]2C[C@@H](n3cnc(-c4ccccc4)c3)C[C@@H]21` (stereo partly drawn) [Compound 200, 4-chloro-N-(1-((1R,3s,5S,6r)-3-(4-phenyl-1H-imidazol-1-yl)bicyclo[3.1.0]hexan-6-yl)propyl)benzamide], for which the half-maximal inhibitory concentration (IC50) in test [1] is under 200 nM; in test [2], 500 to 2000 nM.

On to `CCC(NC(=O)c1ccc(Cl)cc1)[C@H]1[C@@H]2C[C@@H](n3ccnc3C)C[C@@H]21` (stereo partly drawn) [Compound 201, 4-chloro-N-(1-((1R,3s,5S,6r)-3-(2-methyl-1H-imidazol-1-yl)bicyclo[3.1.0]hexan-6-yl)propyl)benzamide], for which the results for the IC50 in test [1] and in test [2] were under 200 nM and 2000 to 5000 nM, respectively.

As for `CCC(NC(=O)c1ccc(Cl)cc1)[C@H]1[C@@H]2C[C@@H](n3ncc(-c4ccccc4)n3)C[C@@H]21` (stereo partly drawn) [Compound 204, 4-chloro-N-(1-((1R,3s,5S,6r)-3-(4-phenyl-2H-1,2,3-triazol-2-yl)bicyclo[3.1.0]hexan-6-yl)propyl)benzamide], the IC50 was under 200 nM in test [1] and 500 to 2000 nM in test [2].

As to `CCC(NC(=O)c1ccc(Cl)cc1)[C@H]1[C@@H]2C[C@@H](n3cc4cccc(F)c4n3)C[C@@H]21` (stereo partly drawn) [Compound 205, 4-chloro-N-(1-((1R,3s,5S,6r)-3-(7-fluoro-2H-indazol-2-yl)bicyclo[3.1.0]hexan-6-yl)propyl)benzamide], the IC50 in test [1] was under 200 nM; in test [2] it was under 500 nM.

`CCC(NC(=O)c1ccc(Cl)cc1)[C@H]1[C@@H]2C[C@@H](n3ncc4cccc(F)c43)C[C@@H]21` (stereo partly drawn) [Compound 206, 4-chloro-N-(1-((1R,3s,5S,6r)-3-(7-fluoro-1H-indazol-1-yl)bicyclo[3.1.0]hexan-6-yl)propyl)benzamide]: the IC50 in test [1] is under 200 nM; in test [2], 500 to 2000 nM.

For `CCC(NC(=O)c1ccc(Cl)cc1)[C@H]1[C@@H]2C[C@@H](n3ncc4cc(F)ccc43)C[C@@H]21` (stereo partly drawn) [Compound 208, 4-chloro-N-(1-((1R,3s,5S,6r)-3-(5-fluoro-1H-indazol-1-yl)bicyclo[3.1.0]hexan-6-yl)propyl)benzamide], the IC50 in test [1] was under 200 nM; in test [2], under 500 nM.

For `CCC(NC(=O)c1ccc(Cl)cc1)[C@H]1[C@@H]2C[C@@H](n3cc4c(F)cccc4n3)C[C@@H]21` (stereo partly drawn) [Compound 209, 4-chloro-N-(1-((1R,3s,5S,6r)-3-(4-fluoro-2H-indazol-2-yl)bicyclo[3.1.0]hexan-6-yl)propyl)benzamide], the IC50 in test [1] was under 200 nM; in test [2] it was under 500 nM.

For the molecule `CCC(NC(=O)c1ccc(Cl)cc1)[C@H]1[C@@H]2C[C@@H](n3ncc4c(F)cccc43)C[C@@H]21` (stereo partly drawn) [Compound 210, 4-chloro-N-(1-((1R,3s,5S,6r)-3-(4-fluoro-1H-indazol-1-yl)bicyclo[3.1.0]hexan-6-yl)propyl)benzamide], the IC50 in test [1] is under 200 nM; in test [2] it was 500 to 2000 nM.

On to `CCC(NC(=O)c1ccc(Cl)cc1)[C@H]1[C@@H]2C[C@@H](n3cc4cccnc4n3)C[C@@H]21` (stereo partly drawn) [Compound 211, N-(1-((1R,3s,5S,6r)-3-(2H-pyrazolo[3,4-b]pyridin-2-yl)bicyclo[3.1.0]hexan-6-yl)propyl)-4-chlorobenzamide], for which the IC50 in test [1] is under 200 nM; in test [2] it was under 500 nM.

For `CCC(NC(=O)c1ccc(Cl)cc1)[C@H]1[C@@H]2C[C@@H](n3ncc4cccnc43)C[C@@H]21` (stereo partly drawn) [Compound 212, N-(1-((1R,3s,5S,6r)-3-(1H-pyrazolo[3,4-b]pyridin-1-yl)bicyclo[3.1.0]hexan-6-yl)propyl)-4-chlorobenzamide], the IC50 in test [1] was under 200 nM; in test [2], 500 to 2000 nM.

In the case of `CCC(NC(=O)c1ccc(Cl)cc1)[C@H]1[C@@H]2C[C@@H](n3nc4cc(F)cc(F)c4n3)C[C@@H]21` (stereo partly drawn) [Compound 213, 4-chloro-N-(1-((1R,3s,5S,6r)-3-(4,6-difluoro-2H-benzo[d][1,2,3]triazol-2-yl)bicyclo[3.1.0]hexan-6-yl)propyl)benzamide], the IC50 in test [1] was under 200 nM; in test [2], 500 to 2000 nM.

As for `CCC(NC(=O)c1ccc(Cl)cc1)[C@H]1[C@@H]2C[C@H](n3cc(COC)nn3)C[C@@H]21` (stereo partly drawn) [Compound 214, 4-chloro-N-(1-((1R,3r,5S,6r)-3-(4-(methoxymethyl)-1H-1,2,3-triazol-1-yl)bicyclo[3.1.0]hexan-6-yl)propyl)benzamide], the IC50 in test [1] was under 200 nM; in test [2], under 500 nM.

`CCC(NC(=O)c1ccc(Cl)cc1)[C@H]1[C@@H]2C[C@H](n3cc(COCCOC)nn3)C[C@@H]21` (stereo partly drawn) [Compound 215, 4-chloro-N-(1-((1R,3r,5S,6r)-3-(4-((2-methoxyethoxy)methyl)-1H-1,2,3-triazol-1-yl)bicyclo[3.1.0]hexan-6-yl)propyl)benzamide]: the IC50 in test [1] was in the range of 200 to 2000 nM; in test [2] it was 500 to 2000 nM.

In the case of `CCOCc1cn([C@H]2C[C@@H]3[C@H](C2)[C@H]3C(CC)NC(=O)c2ccc(Cl)cc2)nn1` (stereo partly drawn) [Compound 216, 4-chloro-N-(1-((1R,3r,5S,6r)-3-(4-(ethoxymethyl)-1H-1,2,3-triazol-1-yl)bicyclo[3.1.0]hexan-6-yl)propyl)benzamide], the IC50 in test [1] was under 200 nM; in test [2], under 500 nM.

As to `CCC(NC(=O)c1ccc(Cl)cc1)[C@H]1[C@@H]2C[C@@H](NC(C(=O)O)c3ccccc3)C[C@@H]21` (stereo partly drawn) [Compound 217, 2-(((1R,3s,5S,6r)-6-(1-(4-chlorobenzamido)propyl)bicyclo[3.1.0]hexan-3-yl)amino)-2-phenylacetic acid], the IC50 in test [1] and in test [2] was over 5000 nM each time.

Turning to `CCC(NC(=O)c1ccc(Cl)cc1)[C@H]1[C@@H]2C[C@@H](NC(=O)c3ncccc3Cl)C[C@@H]21` (stereo partly drawn) [Compound 218, 3-chloro-N-((1R,3s,5S,6r)-6-(1-(4-chlorobenzamido)propyl)bicyclo[3.1.0]hexan-3-yl)picolinamide], the concentration for half-maximal inhibition (IC50) in test [1] was under 200 nM; in test [2], 500 to 2000 nM.

These data come from patent US11173145B2, “Compounds useful as inhibitors of indoleamine 2,3-dioxygenase and/or tryptophan dioxygenase” (Board of Regents, The University of Texas System, priority 2017, dated 2021).
